Reference: PubChem BioAssay (NCI)
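All cell lines were grown in 96-well plates and treated with compound for 48 hours. GI50 = concentration required for 50% inhibition of growth. TGI marks complete inhibition of growth.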

Assays:
Assay in all cases: DTP human tumour cell line panel, 48 h
[1] = system: SK-MEL-28 melanoma
[2] = system: A549 NSCLC
[3] = system: HOP-92 NSCLC
[4] = system: NCI-H522 lung
[5] = system: U251 CNS
[6] = system: ACHN renal
[7] = system: CAKI-1 renal
[8] = system: NCI-H23 lung
[9] = system: HL-60(TB) leukemia
[10] = system: CCRF-CEM leukemia
[11] = system: MCF7 breast

Compound | TGI [1] | GI50 [2] | TGI [2] | GI50 [3] | TGI [3] | TGI [4] | TGI [5] | TGI [6] | TGI [7] | GI50 [8] | TGI [8] | TGI [9] | TGI [10] | TGI [11] | GI50 [10] | GI50 [4] | GI50 [6] | GI50 [7] | GI50 [9]
O=C(N/N=C/c1cc(Cl)cc(Cl)c1[O-])c1ccccc1O.O=C(N/N=C/c1cc(Cl)cc(Cl)c1[O-])c1ccccc1O.[Mn+2] | 12.1 µM | 0.377 µM | 11.6 µM | 0.429 µM | 3.33 µM | 0.737 µM | 5.52 µM | 11.9 µM | 4.33 µM | 0.301 µM | 6.31 µM | 0.404 µM | – | – | – | – | – | – | –
COc1ccc2[nH]c(=O)cc(C)c2c1[N+](=O)[O-] | > 100 µM | – | > 100 µM | – | > 100 µM | > 100 µM | > 100 µM | > 100 µM | > 100 µM | – | > 100 µM | > 100 µM | > 100 µM | – | – | – | – | – | –
Cc1ccnn1CCc1ccc(Cl)cc1Cl | > 100 µM | – | > 100 µM | – | – | – | > 100 µM | > 100 µM | > 100 µM | – | > 100 µM | 42.4 µM | > 100 µM | > 100 µM | – | – | – | – | –
Nc1nc(N)c2ncn(Cc3ccccc3CO)c2n1 | > 100 µM | – | > 100 µM | – | > 100 µM | > 100 µM | > 100 µM | > 100 µM | > 100 µM | – | > 100 µM | > 100 µM | > 100 µM | > 100 µM | – | – | – | – | –
CSc1nc2c(ncn2C2OC(CO)C(O)C(O)C2O)c(=O)n1C (stereo not given) | > 100 µM | – | > 100 µM | – | > 100 µM | > 100 µM | > 100 µM | – | – | – | > 100 µM | > 100 µM | > 100 µM | > 100 µM | – | – | – | – | –
COc1cccc(/C=N/[N+](C)(C)C)c1O | > 10 µM | – | > 10 µM | – | – | > 10 µM | > 10 µM | > 10 µM | > 10 µM | – | > 10 µM | > 10 µM | > 10 µM | > 10 µM | – | – | – | – | –
O=C1Nc2ccccc2C1(O)Cc1ccccn1 (stereo not given) | > 100 µM | – | > 100 µM | – | > 100 µM | > 100 µM | > 100 µM | > 100 µM | > 100 µM | – | > 100 µM | > 100 µM | > 100 µM | > 100 µM | – | – | – | – | –
COc1cc(C2c3cc4c(cc3[C@@H](Nc3cnc5ccccc5c3)C3COC(=O)[C@H]23)OCO4)cc(OC)c1O (stereo not given in full) | 3.85 µM | – | 0.789 µM | – | 2.81 µM | 3.19 µM | 0.6 µM | – | 1.78 µM | – | 2.02 µM | 0.377 µM | 0.463 µM | > 31.7 µM | – | – | – | – | –
O=c1c2cc([N+](=O)[O-])ccc2[nH]n1Cc1ccccc1Cl | > 100 µM | – | > 100 µM | – | 93.9 µM | > 100 µM | > 100 µM | > 100 µM | > 100 µM | – | > 100 µM | > 100 µM | > 100 µM | – | – | – | – | – | –
C=C1C(=O)OC2/C=C(CO)/C=C\C3OC3(C)CC(OC(=O)/C(C)=C/COC(C)=O)C12 (stereo not given) | 3.26 µM | – | 28.5 µM | – | 5.94 µM | 1.81 µM | 14.5 µM | 9.16 µM | 10.9 µM | – | 8.53 µM | 1.48 µM | – | 16.4 µM | – | – | – | – | –
C=CCn1c(C)nc2cc(Nc3nc(N4CCCC4)nc4nc[nH]c34)ccc21 | – | – | – | > 100 µM | > 100 µM | > 100 µM | – | > 100 µM | > 100 µM | > 100 µM | > 100 µM | > 100 µM | > 100 µM | – | 54.5 µM | > 100 µM | > 100 µM | > 100 µM | > 100 µM
COc1cc2c(/C=C3/C(=O)Nc4cc(C)c(O)cc43)c(Cl)[nH]c2cc1C | 18.9 µM | – | 20.2 µM | – | > 100 µM | 11.1 µM | 15.7 µM | 17.9 µM | 7.01 µM | – | 5.87 µM | – | 2.02 µM | 13.4 µM | – | – | – | – | –
O=C1C=CC2(C=C1)O[C@H](CCc1ccccc1)[C@@H](CCc1ccccc1)O2 | > 100 µM | – | > 100 µM | – | 94.3 µM | – | 38.2 µM | > 100 µM | > 100 µM | – | > 100 µM | > 100 µM | > 100 µM | > 100 µM | – | – | – | – | –
COc1cnc2oc3ccc(O)cc3c2c1-c1ccccc1 | > 100 µM | – | > 100 µM | – | > 100 µM | > 100 µM | > 100 µM | > 100 µM | > 100 µM | – | > 100 µM | > 100 µM | > 100 µM | > 100 µM | – | – | – | – | –
O=C(O)C(C1NCCS1)N1C(=O)c2ccccc2C1=O (stereo not given) | > 100 µM | – | > 100 µM | – | > 100 µM | > 100 µM | > 100 µM | > 100 µM | > 100 µM | – | > 100 µM | > 100 µM | > 100 µM | > 100 µM | – | – | – | – | –
CC1=CC2=C(C=O)C(=O)[C@](C)(O)[C@@H](O)C2=CO1 | > 78.1 µM | – | > 90.8 µM | – | > 100 µM | 38.5 µM | > 76.8 µM | – | > 100 µM | – | > 100 µM | – | 59.3 µM | > 100 µM | – | – | – | – | –
C=C1C(=O)OC2/C=C(\CO)C3OC3C3OC3(C)CC(OC(=O)/C(=C/C)COC(C)=O)C12 (stereo not given) | 3.72 µM | – | 36.9 µM | – | 4.35 µM | 1.2 µM | 16.8 µM | 9.68 µM | 4.67 µM | – | 21.7 µM | – | – | 20.1 µM | – | – | – | – | –
COc1ccc(C(=O)c2[nH]c(Nc3cc(C)ccn3)c(C(=S)Nc3ccccc3)c2N)cc1 | 34 µM | – | > 100 µM | – | – | 29.9 µM | 36.4 µM | 97.4 µM | > 100 µM | – | 72.6 µM | 64 µM | – | 75.2 µM | – | – | – | – | –
Cc1c2cnccc2c(C)c2c1c1ccccc1n2CCCCCCCl | > 50 µM | – | > 50 µM | – | > 50 µM | > 50 µM | > 50 µM | – | > 50 µM | – | > 50 µM | 40.6 µM | > 50 µM | > 50 µM | – | – | – | – | –
O=C1Sc2sc(=S)sc2SC1c1ccccc1 (stereo not given) | > 64.8 µM | – | > 100 µM | – | > 82.4 µM | 19.5 µM | > 100 µM | – | > 100 µM | – | > 100 µM | > 31.6 µM | 91.5 µM | > 100 µM | – | – | – | – | –
